Bridge positions count the residues as written; N and C are the ends. Peptide text beside a SMILES is read from it. * marks the point of attachment. FITC = O=C1OC2(c3ccc(O)cc3Oc3cc(O)ccc32)c2ccc(NC(=S)*)cc21; Stearoyl = CCCCCCCCCCCCCCCCCC(=O)*
Tests used:
[1] = test system: intracellular HPV L1 and L2; assay: Immunoblot detection of intracellular L1 and L2; type: cell-based, HPV16; details: CHO-K1 cells, HPV-GFP MOI of 50; 500 nM 13-46st, 100 nM BafA1 or both for 24 h
Protocol: (§1) FIG 5 The L2N lipopeptide blocks HPV entry without affecting HPV capsid priming and internalization. (A) Cell binding and uptake of L2N lipopeptide. HeLa cells were incubated with 500 nM FITC-m13-46st peptide for indicated times. Images were captured after three PBS washes. Bar, 25 μm. (B) L2N lipopeptide inhibits HPV-GFP entry. HeLa cells were treated with 500 nM L2N lipopeptide (13-46st) before (pre), during (co), or after (post) HPV-GFP inoculation. Mock, no peptide treatment. GFP intensity was analyzed at 36 hpi. Bar, 200 μm. (C) Peptide addition/withdrawal assays were performed as indicated in the schematic diagram (top). CHO-K1 cells were incubated with HPV-Lucia at 4°C for 2 h. […] Lucia activity was analyzed at 40 hpi. […] Intracellular L1 and L2 levels were determined by immunoblotting with MD2H11 and JWW-1, respectively. […] HPV L2 JWW-1 epitope exposure was analyzed by immunostaining with JWW-1 antibody (in red). […]
FIG 6 The L2N lipopeptide blocks TGN trafficking of HPV, leading to rapid virion degradation. […] Localization of the TGN (green) was analyzed by immunostaining with anti-P230 antibody. […] The ratios of EdU puncta in the nucleus (B) or in the TGN (C) were quantified based on representative images under each condition. P values were determined by ordinary one-way ANOVA with Dunnett’s multiple-comparison test (n = 10) ****, P < 0.0001. […]

HeLa cells = assay: L2N-FITC peptide binding and uptake assay; type: cell-based, homo sapiens; details: 500 nM FITC-m13-46st for indicated times, three PBS washes, fluorescence imaging
Protocol: FIG 5 The L2N lipopeptide blocks HPV entry without affecting HPV capsid priming and internalization. (A) Cell binding and uptake of L2N lipopeptide. HeLa cells were incubated with 500 nM FITC-m13-46st peptide for indicated times. Images were captured after three PBS washes. Bar, 25 μm. (B) L2N lipopeptide inhibits HPV-GFP entry. HeLa cells were treated with 500 nM L2N lipopeptide (13-46st) before (pre), during (co), or after (post) HPV-GFP inoculation. Mock, no peptide treatment. GFP intensity was analyzed at 36 hpi. Bar, 200 μm. (C) Peptide addition/withdrawal assays were performed as indicated in the schematic diagram (top). CHO-K1 cells were incubated with HPV-Lucia at 4°C for 2 h. The 13-46st lipopeptide (500 nM) was subsequently added or withdrawn from the medium 1, 2, 4, 8, and 16 h after viral attachment. Lucia activity was analyzed at 40 hpi. (D) CHO-K1 cells were infected with HPV-L2-PSTCD-3×FLAG (MOI of 50) and treated with the indicated chemicals: 500 nM dRVRK, 500 nM L2N lipopeptide 13-46st (L2N), 100 nM BafA1, and 1 μM γ-secretase inhibitor XXI. L2 immunoblotting was performed with anti-FLAG antibody at 16 hpi. […] Intracellular L1 and L2 levels were determined by immunoblotting with MD2H11 and JWW-1, respectively. […] HPV L2 JWW-1 epitope exposure was analyzed by immunostaining with JWW-1 antibody (in red). […]

[2] = test system: HPV-Lucia (HPV16 pseudovirus carrying Lucia); details: 4 h
furin cleavage of HPV L2 = assay: Furin cleavage of PSTCD-fused L2 (immunoblot); type: cell-based, HPV16; details: CHO-K1 cells, HPV-L2-PSTCD-3×FLAG MOI of 50; 500 nM dRVRK, 500 nM 13-46st, 100 nM BafA1, 1 μM γ-secretase inhibitor XXI; anti-FLAG immunoblot
Protocol: as §1
To further dissect how the L2N lipopeptide interfered with HPV entry, we tested whether furin cleavage, internalization, and JWW-1 epitope exposure of HPV were affected by peptide treatment in either CHO-K1 cells or HeLa cells. Furin cleavage was analyzed by infection of HPV PsV carrying Propionibacterium shermanii transcarboxylase domain (PSTCD)-fused L2. […] Internalization of viral particles was analyzed by detecting intracellular L1 and L2 at 2 h postinfection.

Compound: CO/C1=C\C(C)=C\[C@@H](C)[C@@H](O)[C@@H](C)C/C(C)=C/C=C/[C@H](OC)[C@@H]([C@@H](C)[C@@H](O)[C@H](C)[C@@]2(O)C[C@@H](O)[C@H](C)[C@@H](C(C)C)O2)OC1=O [BafA1, bafilomycin A1]
- intracellular full-length L1 and L2 levels [1]: prevented L1 and L2 degradation

Compound: CCCCCCCCCCCCCCCCCC(=O)NCCCC[C@H](NC(=O)[C@H](CCCCNC(=S)Nc1ccc2c(c1)C(=O)OC21c2ccc(O)cc2Oc2cc(O)ccc21)NC(=O)[C@H](CO)NC(=O)CNC(=O)[C@H](CC(C)C)NC(=O)[C@@H](NC(=O)[C@H](CCCNC(=N)N)NC(=O)[C@H](CC(=O)O)NC(=O)[C@H](C)NC(=O)[C@H](CC(C)C)NC(=O)[C@@H](NC(=O)[C@H](CC(N)=O)NC(=O)CNC(=O)[C@H](CCC(=O)O)NC(=O)[C@@H](NC(=O)[C@H](CCCCN)NC(=O)[C@H](CC(N)=O)NC(=O)[C@@H](NC(=O)[C@@H](NC(=O)[C@H](CC(=O)O)NC(=O)[C@@H]1CCCN1C(=O)[C@@H]1CCCN1C(=O)[C@@H]1CSSC[C@H](NC(=O)[C@H](CCC(N)=O)NC(=O)[C@H](CCCNC(=N)N)NC(=O)[C@H](Cc2ccc(O)cc2)NC(=O)[C@H](CC(C)C)NC(=O)[C@H](CC(N)=O)NC(=O)[C@H](CO)NC(=O)[C@H](C)NC(=O)[C@H](CO)NC(=O)[C@@H](N)CC(=O)O)C(=O)N[C@@H](CCC(N)=O)C(=O)N[C@@H](C(C)C)C(=O)N[C@@H]([C@@H](C)O)C(=O)NCC(=O)N[C@@H](CC(N)=O)C(=O)N1)C(C)C)C(C)C)C(C)C)[C@@H](C)O)[C@@H](C)CC)C(=O)O [FITC-m13-46st] (H-DSASNLYRQCQVTGNCPPDVVNKVEGNTLADRILGSK(FITC)K(Stearoyl)-OH; disulfide 10-16)
- cell binding and uptake of the lipopeptide (HeLa cells): readily detected on HeLa cells at 15 min postincubation, and significant internalization was observed at 30 min postincubation and became apparent at 2 h postincubation
- IC50 [2]: < 10 nM

Compound: CCCCCCCCCC(=O)N[C@@H](CCCN=C(N)N)C(=O)N[C@H](C(=O)N[C@@H](CCCCN)C(=O)N[C@@H](CCCN=C(N)N)C(=O)CCl)C(C)C [dRVRK] (HELM PEPTIDE1{[CCCCCCCCCC(=O)[*:2]].R.V.K.R.[ClC[*:1]]}$$$$V2.0)
- furin cleavage of L2 (furin cleavage of HPV L2): furin cleavage was inhibited

Source: article PMC6686047, “Efficient Inhibition of Human Papillomavirus Infection by L2 Minor Capsid-Derived Lipopeptide” (mBio, 2019)
